Laboratory results: PubChem BioAssay (NCI)
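Step 1: Grow cells in 96-well plates. Step 2: Expose to compound for 48 hours at 5 concentrations. Step 3: Interpolate endpoints linearly; if unreached, use highest concentration. TGI: concentration producing complete growth inhibition.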

How the values were obtained:
Test in all cases: growth of human tumour cells (NCI), 48 h
NCI-H226 lung = tested on: NCI-H226 lung
T-47D breast = tested on: T-47D breast
OVCAR-3 ovarian = tested on: OVCAR-3 ovarian
NCI-H460 lung = tested on: NCI-H460 lung
COLO 205 colon = tested on: COLO 205 colon
786-0 renal = tested on: 786-0 renal
M14 melanoma = tested on: M14 melanoma
U251 CNS = tested on: U251 CNS
A549 NSCLC = tested on: A549 NSCLC
TK-10 renal = tested on: TK-10 renal
HS 578T breast = tested on: HS 578T breast
HCT-116 colon = tested on: HCT-116 colon
EKVX NSCLC = tested on: EKVX NSCLC
NCI-H522 lung = tested on: NCI-H522 lung
MOLT-4 leukemia = tested on: MOLT-4 leukemia
SK-OV-3 ovarian = tested on: SK-OV-3 ovarian
KM12 colon = tested on: KM12 colon
SNB-75 CNS = tested on: SNB-75 CNS
SW-620 colon = tested on: SW-620 colon
RXF 393 renal = tested on: RXF 393 renal
OVCAR-4 ovarian = tested on: OVCAR-4 ovarian
HCT-15 colon = tested on: HCT-15 colon
SK-MEL-2 melanoma = tested on: SK-MEL-2 melanoma
SNB-19 CNS = tested on: SNB-19 CNS
UACC-257 melanoma = tested on: UACC-257 melanoma
OVCAR-5 ovarian = tested on: OVCAR-5 ovarian
RPMI-8226 leukemia = tested on: RPMI-8226 leukemia
BT-549 breast = tested on: BT-549 breast
DU-145 prostate = tested on: DU-145 prostate
NCI-H23 lung = tested on: NCI-H23 lung
MDA-N = tested on: MDA-N
SK-MEL-5 melanoma = tested on: SK-MEL-5 melanoma
HL-60(TB) leukemia = tested on: HL-60(TB) leukemia
MCF7 breast = tested on: MCF7 breast
LOX IMVI melanoma = tested on: LOX IMVI melanoma
NCI/ADR-RES ovarian = tested on: NCI/ADR-RES ovarian
HOP-92 NSCLC = tested on: HOP-92 NSCLC
K-562 leukemia = tested on: K-562 leukemia
MDA-MB-435 = tested on: MDA-MB-435
SR leukemia = tested on: SR leukemia
HCC-2998 colon = tested on: HCC-2998 colon
HT29 colon = tested on: HT29 colon
SF-295 CNS = tested on: SF-295 CNS
SF-268 CNS = tested on: SF-268 CNS
SK-MEL-28 melanoma = tested on: SK-MEL-28 melanoma
CAKI-1 renal = tested on: CAKI-1 renal
UACC-62 melanoma = tested on: UACC-62 melanoma
CCRF-CEM leukemia = tested on: CCRF-CEM leukemia
PC-3 prostate = tested on: PC-3 prostate
SN12C renal = tested on: SN12C renal
MDA-MB-231 breast = tested on: MDA-MB-231 breast
A498 renal = tested on: A498 renal
ACHN renal = tested on: ACHN renal
IGROV1 ovarian = tested on: IGROV1 ovarian
OVCAR-8 ovarian = tested on: OVCAR-8 ovarian
HOP-62 NSCLC = tested on: HOP-62 NSCLC
MALME-3M melanoma = tested on: MALME-3M melanoma
UO-31 renal = tested on: UO-31 renal
SF-539 CNS = tested on: SF-539 CNS

Question: Which results are given for CC(=O)Nc1ccc2[nH]c(C(=O)N3CC(CCl)c4c3cc([N+](=O)[O-])c3ccccc43)cc2c1 (centres undefined)?
Answer: TGI (NCI-H226 lung): 58.8 µM; TGI (T-47D breast): 9.92 µM; TGI (OVCAR-3 ovarian): > 100 µM; TGI (NCI-H460 lung): > 100 µM; TGI (COLO 205 colon): > 100 µM; TGI (786-0 renal): > 100 µM; TGI (M14 melanoma): > 100 µM; TGI (U251 CNS): > 100 µM; TGI (A549 NSCLC): 1.15 µM; TGI (TK-10 renal): > 100 µM; TGI (HS 578T breast): > 95 µM; TGI (HCT-116 colon): > 100 µM; TGI (EKVX NSCLC): > 89.4 µM; TGI (NCI-H522 lung): 6.61 µM; TGI (MOLT-4 leukemia): > 67.6 µM; TGI (SK-OV-3 ovarian): > 65.1 µM; TGI (KM12 colon): > 71.7 µM; TGI (SNB-75 CNS): > 64.4 µM; TGI (SW-620 colon): > 100 µM; TGI (RXF 393 renal): 32.7 µM; TGI (OVCAR-4 ovarian): > 100 µM; TGI (HCT-15 colon): > 100 µM; TGI (SK-MEL-2 melanoma): > 69.5 µM; TGI (SNB-19 CNS): > 100 µM; TGI (UACC-257 melanoma): > 100 µM; TGI (OVCAR-5 ovarian): 96.9 µM; TGI (RPMI-8226 leukemia): > 27.8 µM; TGI (BT-549 breast): > 100 µM; TGI (DU-145 prostate): > 100 µM; TGI (NCI-H23 lung): > 100 µM; TGI (MDA-N): > 100 µM; TGI (SK-MEL-5 melanoma): > 100 µM; TGI (HL-60(TB) leukemia): 23 µM; TGI (MCF7 breast): > 100 µM; TGI (LOX IMVI melanoma): > 100 µM; TGI (NCI/ADR-RES ovarian): > 100 µM; TGI (HOP-92 NSCLC): > 43.7 µM; TGI (K-562 leukemia): > 45.8 µM; TGI (MDA-MB-435): > 100 µM; TGI (SR leukemia): 5.83 µM; TGI (HCC-2998 colon): > 100 µM; TGI (HT29 colon): > 100 µM; TGI (SF-295 CNS): > 100 µM; TGI (SF-268 CNS): > 57.1 µM; TGI (SK-MEL-28 melanoma): > 100 µM; TGI (CAKI-1 renal): > 29.9 µM; TGI (UACC-62 melanoma): > 31.6 µM; TGI (CCRF-CEM leukemia): 29 µM; TGI (PC-3 prostate): > 100 µM; TGI (SN12C renal): > 100 µM; TGI (MDA-MB-231 breast): > 100 µM; TGI (A498 renal): 4.06 µM; TGI (ACHN renal): > 100 µM; TGI (IGROV1 ovarian): > 53 µM; TGI (OVCAR-8 ovarian): > 100 µM

Question: How did the TGI (NCI-H226 lung) turn out when Cn1c(CO)ccc1-c1ccc(-c2ccc[se]2)[se]1 was run?
Answer: 4.78 µM

Question: What about the TGI (T-47D breast) of the same compound?
Answer: > 100 µM

Question: And the TGI (NCI-H460 lung)?
Answer: > 100 µM

Question: What about the TGI (COLO 205 colon) of the same compound?
Answer: > 84.2 µM

Question: What about the TGI (786-0 renal) of the same compound?
Answer: > 71.2 µM

Question: What about the TGI (M14 melanoma) of the same compound?
Answer: > 100 µM

Question: What about the TGI (A549 NSCLC) of the same compound?
Answer: > 100 µM

Question: And the TGI (HS 578T breast)?
Answer: > 100 µM

Question: What about the TGI (EKVX NSCLC) of the same compound?
Answer: > 100 µM

Question: And the TGI (NCI-H522 lung)?
Answer: > 100 µM

Question: What about the TGI (MOLT-4 leukemia) of the same compound?
Answer: 59.7 µM

Question: And the TGI (SK-OV-3 ovarian)?
Answer: 27.2 µM

Question: What about the TGI (KM12 colon) of the same compound?
Answer: > 100 µM

Question: What about the TGI (SNB-75 CNS) of the same compound?
Answer: 37.2 µM

Question: What about the TGI (SW-620 colon) of the same compound?
Answer: 77.8 µM

Question: What about the TGI (RXF 393 renal) of the same compound?
Answer: 26.4 µM

Question: And the TGI (OVCAR-4 ovarian)?
Answer: 39.5 µM

Question: And the TGI (HCT-15 colon)?
Answer: > 100 µM

Question: And the TGI (SK-MEL-2 melanoma)?
Answer: > 100 µM

Question: What about the TGI (SNB-19 CNS) of the same compound?
Answer: > 100 µM

Question: What about the TGI (RPMI-8226 leukemia) of the same compound?
Answer: > 71.6 µM

Question: And the TGI (BT-549 breast)?
Answer: > 81.4 µM

Question: And the TGI (DU-145 prostate)?
Answer: 58 µM

Question: What about the TGI (NCI-H23 lung) of the same compound?
Answer: 50.7 µM

Question: And the TGI (MDA-N)?
Answer: > 61.5 µM

Question: What about the TGI (SK-MEL-5 melanoma) of the same compound?
Answer: > 90.2 µM

Question: And the TGI (HL-60(TB) leukemia)?
Answer: > 63.2 µM

Question: What about the TGI (MCF7 breast) of the same compound?
Answer: > 52.4 µM

Question: What about the TGI (LOX IMVI melanoma) of the same compound?
Answer: > 100 µM

Question: And the TGI (NCI/ADR-RES ovarian)?
Answer: > 100 µM

Question: And the TGI (HOP-62 NSCLC)?
Answer: 55.1 µM

Question: And the TGI (K-562 leukemia)?
Answer: > 43.3 µM

Question: And the TGI (MDA-MB-435)?
Answer: 26.2 µM

Question: And the TGI (SR leukemia)?
Answer: > 100 µM

Question: And the TGI (MALME-3M melanoma)?
Answer: > 100 µM

Question: And the TGI (HCC-2998 colon)?
Answer: > 47.7 µM

Question: What about the TGI (HT29 colon) of the same compound?
Answer: > 100 µM

Question: What about the TGI (SF-295 CNS) of the same compound?
Answer: > 100 µM

Question: What about the TGI (UO-31 renal) of the same compound?
Answer: > 100 µM

Question: And the TGI (SF-268 CNS)?
Answer: > 100 µM

Question: What about the TGI (SK-MEL-28 melanoma) of the same compound?
Answer: > 100 µM

Question: And the TGI (CCRF-CEM leukemia)?
Answer: > 60.6 µM

Question: And the TGI (PC-3 prostate)?
Answer: > 100 µM

Question: What about the TGI (SN12C renal) of the same compound?
Answer: 99.5 µM

Question: What about the TGI (MDA-MB-231 breast) of the same compound?
Answer: 60 µM

Question: And the TGI (A498 renal)?
Answer: 0.187 µM

Question: What about the TGI (ACHN renal) of the same compound?
Answer: > 100 µM

Question: And the TGI (SF-539 CNS)?
Answer: 31.7 µM

Question: And the TGI (OVCAR-8 ovarian)?
Answer: > 100 µM
